# Assay results from ChEMBL document CHEMBL1153413, “Pyranonaphthoquinone lactones: a new class of AKT selective kinase inhibitors alkylate a regulatory loop cysteine” (J Med Chem, 2009).
# Activity calls are given as the source filed them. No cut-off for these calls is given here.
# How the values were obtained:
# [1] = molecular target: T1, RAC-alpha serine/threonine-protein kinase (Homo sapiens, UniProt P31749); experiment: Inhibition of AKT
# [2] = Cytotoxicity against human MDA468 cells expressing AKT; type: functional, cell-based, MDA-MB-468
# [3] = molecular target: T1, RAC-alpha serine/threonine-protein kinase; experiment: Inhibition of AKT at < 10 uM
# T1 sequence (P31749 whole entry): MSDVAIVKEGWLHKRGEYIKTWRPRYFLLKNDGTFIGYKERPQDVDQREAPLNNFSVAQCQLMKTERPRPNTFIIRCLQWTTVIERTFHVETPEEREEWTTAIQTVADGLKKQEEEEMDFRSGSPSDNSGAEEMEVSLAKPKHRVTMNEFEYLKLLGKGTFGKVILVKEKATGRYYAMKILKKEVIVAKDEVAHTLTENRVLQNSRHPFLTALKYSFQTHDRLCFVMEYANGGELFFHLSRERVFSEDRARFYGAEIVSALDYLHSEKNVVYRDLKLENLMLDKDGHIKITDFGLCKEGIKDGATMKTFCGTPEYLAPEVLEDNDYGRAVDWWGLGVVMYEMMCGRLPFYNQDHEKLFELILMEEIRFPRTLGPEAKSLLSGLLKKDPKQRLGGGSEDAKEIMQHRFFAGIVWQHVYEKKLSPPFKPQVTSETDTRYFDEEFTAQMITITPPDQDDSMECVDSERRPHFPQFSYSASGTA
SMILES,IC50 [1],Activity [3],"IC50 ([2]; Homo sapiens, MDA-MB-468)",IC50 ([2]; mda-mb-468)
CCOC(=O)C[C@@H]1CC2=C(C(=O)c3ccccc3C2=O)[C@@H](c2ccsc2)O1 (stereo in doubt; (+)),–,inactive,–,–
CCOC(=O)C[C@@H]1CC2=C(C(=O)c3ccccc3C2=O)[C@H](c2ccc(O)cc2)O1 (racemic),–,inactive,–,–
CCOC(=O)C[C@@H]1CC2=C(C(=O)c3ccccc3C2=O)[C@@H](c2ccsc2)O1 (stereo in doubt; (-)),–,inactive,–,–
CCOC(=O)C[C@@H]1CC2=C(C(=O)c3ccccc3C2=O)C2(CCCC2)O1 (racemic),–,inactive,–,–
CCOC(=O)C[C@@H]1CC2=C(C(=O)c3ccccc3C2=O)[C@H](c2ccc(N)cc2)O1 (racemic),–,inactive,–,–
CCOC(=O)C[C@@H]1CC2=C(C(=O)c3ccccc3C2=O)C(C)(C)O1 (racemic),–,inactive,–,–
CCOC(=O)C[C@@H]1CC2=C(C(=O)c3ccccc3C2=O)[C@H](c2cccc(O)c2)O1 (racemic),–,inactive,–,–

# Further lines, with some results ahead:
IC50 [1],Activity [3],SMILES,"IC50 ([2]; Homo sapiens, MDA-MB-468)",IC50 ([2]; mda-mb-468)
350 nM,–,O=C1C[C@H]2O[C@@H](c3cccc(O)c3)C3=C(C(=O)c4ccccc4C3=O)[C@H]2O1 (racemic),1000 nM,–
497 nM,–,CCC[C@H]1O[C@@H]2CC(=O)O[C@@H]2C2=C1C(=O)c1c(OC)cccc1C2=O,1110 nM,–
122 nM,–,O=C1C[C@H]2O[C@H](c3ccsc3)C3=C(C(=O)c4ccccc4C3=O)[C@H]2O1 (stereo in doubt; (+)),300 nM,–
80 nM,–,O=C1C[C@H]2O[C@@H](c3ccc(O)cc3)C3=C(C(=O)c4ccccc4C3=O)[C@H]2O1 (racemic),550 nM,–
44 nM,–,O=C1C[C@H]2OCC3=C(C(=O)c4ccccc4C3=O)[C@H]2O1,800 nM,–
57 nM,–,O=C1C[C@H]2O[C@H](c3cccs3)C3=C(C(=O)c4ccccc4C3=O)[C@H]2O1,600 nM,–
–,inactive,CCC[C@@H]1O[C@H](CC(=O)OCC)CC2=C1C(=O)c1ccccc1C2=O (racemic),–,–
99 nM,–,O=C1C[C@H]2O[C@H](c3ccsc3)C3=C(C(=O)c4ccccc4C3=O)[C@H]2O1 (stereo in doubt; (-)),–,410 nM
